Structures can show the parent of a compound that is named as a salt. Where only a bound is given, the exact number is not on record here.

Usually Ki stands for the equilibrium dissociation constant of an inhibitor or competing ligand from its target.

T1 sequence (Q9H3N8 whole entry): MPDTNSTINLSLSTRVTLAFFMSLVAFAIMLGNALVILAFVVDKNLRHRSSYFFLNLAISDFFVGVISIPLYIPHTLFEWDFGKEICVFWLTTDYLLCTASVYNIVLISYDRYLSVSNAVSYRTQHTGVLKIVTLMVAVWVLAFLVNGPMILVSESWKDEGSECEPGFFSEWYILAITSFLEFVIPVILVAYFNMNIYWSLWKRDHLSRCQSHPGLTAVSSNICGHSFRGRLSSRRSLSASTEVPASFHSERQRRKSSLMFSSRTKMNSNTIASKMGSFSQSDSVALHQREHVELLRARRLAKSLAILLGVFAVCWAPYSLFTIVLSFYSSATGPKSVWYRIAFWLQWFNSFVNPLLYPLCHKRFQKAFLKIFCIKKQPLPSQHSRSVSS

The test concerns the target T1, human histamine H4 receptor (Homo sapiens, UniProt Q9H3N8).
T1 construct: expressed in transfected cells; host or cells: SK-N-MC cells or COS7 cells, transiently transfected; cell membranes used
In words: Binding Assay on Recombinant Human Histamine H4 Receptor. To be noted: competition binding with 3H-histamine (5 nM), membranes of SK-N-MC or COS7 cells expressing human H4 receptor; Cheng-Prusoff, KD 5 nM; average of results obtained; read-out: Ki. An outline of the steps:
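Membranes from SK-N-MC or COS7 cells transiently transfected with human H4 receptor were incubated with ³H-histamine (5-70 nM); nonspecific binding defined with 10,000 nM histamine. Bound radioactivity collected by GF/C filtration and scintillation counting; test compounds assessed by displacement of ³H-ligand binding across concentrations.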
Take `CN1CCN(c2nc(N)nc3c2oc2cccc(Cl)c23)CC1` [Example 151, 9-Chloro-4-(4-methyl-piperazin-1-yl)-benzo[4,5]furo[3,2-d]pyrimidin-2-ylamine trifluoroacetic acid salt]: the Ki came out at 0.074 µM.
As for `CN[C@@H]1CCN(c2nc(N)nc3c2oc2cccc(Cl)c23)C1` [Example 152, (R)-9-Chloro-4-(3-methylamino-pyrrolidin-1-yl)-benzo[4,5]furo[3,2-d]pyrimidin-2-ylamine trifluoroacetic acid salt], the Ki was 0.087 µM.
On to `Nc1nc(N2CCNCC2)c2oc3cccc(Cl)c3c2n1` [Example 153, 9-Chloro-4-piperazin-1-yl-benzo[4,5]furo[3,2-d]pyrimidin-2-ylamine trifluoroacetic acid salt], for which the Ki worked out at 1.03 µM.
For the molecule `Nc1nc(N2CCC[C@H](N)C2)c2oc3cccc(Cl)c3c2n1` [Example 154, (S)-4-(3-Amino-piperidin-1-yl)-9-chloro-benzo[4,5]furo[3,2-d]pyrimidin-2-ylamine trifluoroacetic acid salt], the Ki was above 10 µM.
Regarding `Nc1nc(N2C[C@@H]3C[C@H]2CN3)c2oc3cccc(Cl)c3c2n1` [Example 155, (S,S)-9-Chloro-4-(2,5-diaza-bicyclo[2.2.1]hept-2-yl)-benzo[4,5]furo[3,2-d]pyrimidin-2-ylamine trifluoroacetic acid salt], the Ki stood at 0.46 µM.
Consider `Nc1nc(N2CC(N)C2)c2oc3cccc(Cl)c3c2n1` [Example 156, 4-(3-Amino-azetidin-1-yl)-9-chloro-benzo[4,5]furo[3,2-d]pyrimidin-2-ylamine trifluoroacetic acid salt], for which the inhibition constant Ki is above 10 µM.
The value for `COc1ccc2c(c1)sc1c(N3CCN(C)CC3)nc(N)nc12` [Example 159, 7-Methoxy-4-(4-methyl-piperazin-1-yl)-benzo[4,5]thieno[3,2-d]pyrimidin-2-ylamine trifluoroacetic acid salt] was 0.18 µM.
In the case of `OCCNc1nc(N2CCNCC2)c2oc3ccc(Cl)cc3c2n1` [Example 160, 2-(8-Chloro-4-piperazin-1-yl-benzo[4,5]furo[3,2-d]pyrimidin-2-ylamino)-ethanol], the Ki was above 10 µM.
For the molecule `N[C@H]1CCCN(c2nc(NCCO)nc3c2oc2ccc(Cl)cc23)C1` [Example 161, (S)-2-[4-(3-Amino-piperidin-1-yl)-8-chloro-benzo[4,5]furo[3,2-d]pyrimidin-2-ylamino]-ethanol], the Ki is above 10 µM.
Take `NC1CN(c2nc(NCCO)nc3c2oc2ccc(Cl)cc23)C1` [Example 162, 2-[4-(3-Amino-azetidin-1-yl)-8-chloro-benzo[4,5]furo[3,2-d]pyrimidin-2-ylamino]-ethanol]: the inhibitory constant (Ki) is above 10 µM.
As for `CN1CCN(c2nc(N(C)C)nc3c2oc2ccc(Cl)cc23)CC1` [Example 163, [8-Chloro-4-(4-methyl-piperazin-1-yl)-benzo[4,5]furo[3,2-d]pyrimidin-2-yl]-dimethyl-amine], the Ki was found to be 0.718 µM.

For the origin of these results see patent US8030321B2, “Benzofuro- and benzothienopyrimidine modulators of the histamine H4 receptor” (Janssen Pharmaceutica, NV, priority 2006, dated 2011).
